# Source: patent publication US20170101383A1, “DIAMINOTRIAZINE DERIVATIVES AS HERBICIDES” (BASF SE, priority 2014, published 2017)
# What was measured:
# Assay type in all cases: in vivo
# Apera spica-venti [1] = assay: greenhouse pre-emergence treatment, APESV; conditions: 0.500 kg/ha, scale 0 to 100
# Description: (§1) The seeds of the test plants were sown separately for each species. For the pre-emergence treatment, the active ingredients, which had been suspended or emulsified in water, were applied directly after sowing by means of finely distributing nozzles. The containers were irrigated gently to promote germination and growth and subsequently covered with transparent plastic hoods until the plants had rooted. This cover caused uniform germination of the test plants, unless this had been impaired by the active ingredients. Depending on the species, the plants were kept at 10-25° C. or 20-35° C., respectively. The test period extended over 2 to 4 weeks. During this time, the plants were tended, and their response to the individual treatments was evaluated. Evaluation was carried out using a scale from 0 to 100. 100 means no emergence of the plants, or complete destruction of at least the aerial moieties, and 0 means no damage, or normal course of growth. A moderate herbicidal activity is given at values of at least 60, a good herbicidal activity is given at values of at least 70, and a very good herbicidal activity is given at values of at least 85. The plants used in the greenhouse experiments were of the following species: [table]
# Alopecurus myosuroides = assay: greenhouse pre-emergence treatment, ALOMY; conditions: 0.500 kg/ha, scale 0 to 100
# Description: as §1
# Abutilon theophrasti [2] = assay: greenhouse post-emergence treatment, ABUTH; conditions: scale 0 to 100
# Description: (§2) The seeds of the test plants were sown separately for each species. For the post-emergence treatment, the test plants were first grown to a height of 3 to 15 cm, depending on the plant habit, and only then treated with the active ingredients which had been suspended or emulsified in water. For this purpose, the test plants were either sown directly and grown in the same containers, or they were first grown separately as seedlings and transplanted into the test containers a few days prior to treatment. Depending on the species, the plants were kept at 10-25° C. or 20-35° C., respectively. The test period extended over 2 to 4 weeks. During this time, the plants were tended, and their response to the individual treatments was evaluated. Evaluation was carried out using a scale from 0 to 100. 100 means no emergence of the plants, or complete destruction of at least the aerial moieties, and 0 means no damage, or normal course of growth. A moderate herbicidal activity is given at values of at least 60, a good herbicidal activity is given at values of at least 70, and a very good herbicidal activity is given at values of at least 85. The plants used in the greenhouse experiments were of the following species: [table]
# Setaria faberi [3] = assay: greenhouse post-emergence treatment, SETFA; conditions: scale 0 to 100
# Description: as §2
# Amaranthus retroflexus [4] = assay: greenhouse post-emergence treatment, AMARE; conditions: for pest or weed control at 1000 g/ha / pest or weed control at 500 g/ha: Amaranthus retroflexus, scale 0 to 100, read-out: herbicidal activity against AMARE; for pest or weed control at 1000 g/ha: 1.000 kg/ha; for herbicidal activity against AMARE / pest or weed control at 500 g/ha: 0.500 kg/ha; for herbicidal activity against AMARE: scale 0 to 100
# Description: as §2
# Setaria faberi [5] = assay: greenhouse pre-emergence treatment, SETFA; conditions: 0.500 kg/ha, scale 0 to 100
# Description: as §1
# Amaranthus retroflexus [6] = assay: greenhouse pre-emergence treatment, AMARE; conditions: 0.500 kg/ha, scale 0 to 100
# Description: as §1
# Abutilon theophrasti [7] = assay: greenhouse pre-emergence treatment, ABUTH; conditions: 0.500 kg/ha, scale 0 to 100
# Description: as §1
# Apera spica-venti [8] = assay: greenhouse post-emergence treatment, APESV; conditions: 0.500 kg/ha, scale 0 to 100
# Description: as §2
Structure (SMILES),herbicidal activity against APESV (Apera spica-venti [1]),herbicidal activity against ALOMY (Alopecurus myosuroides),herbicidal activity against SETFA (Setaria faberi [5]),herbicidal activity against AMARE (Amaranthus retroflexus [6]),herbicidal activity against APESV (Apera spica-venti [8]),other results
Nc1nc(Nc2c(F)c(F)c(F)c(F)c2F)nc(N2CCCC2)n1 [Example 6],very good (a very good herbicidal activity is given at values of at least 85),very good (a very good herbicidal activity is given at values of at least 85),very good (a very good herbicidal activity is given at values of at least 85),–,–,herbicidal activity against ABUTH (Abutilon theophrasti [2]; 1.000 kg/ha): very good (a very good herbicidal activity is given at values of at least 85); herbicidal activity against SETFA (Setaria faberi [3]; 1.000 kg/ha): very good (a very good herbicidal activity is given at values of at least 85); pest or weed control at 1000 g/ha (Amaranthus retroflexus [4]): ≥ 85%
Nc1nc(Nc2c(F)c(F)c(F)c(F)c2F)nc(N2CCCCCC2)n1 [Example 7],good to very good,good to very good,good to very good,–,–,herbicidal activity against ABUTH (Abutilon theophrasti [2]; 1.000 kg/ha): very good (a very good herbicidal activity is given at values of at least 85); pest or weed control at 1000 g/ha (Amaranthus retroflexus [4]): ≥ 85%
CN(Cc1ccccc1)c1nc(N)nc(Nc2c(F)c(F)c(F)c(F)c2F)n1 [Example 10],–,–,–,–,–,herbicidal activity against ABUTH (Abutilon theophrasti [2]; 1.000 kg/ha): very good (a very good herbicidal activity is given at values of at least 85); pest or weed control at 1000 g/ha (Amaranthus retroflexus [4]): ≥ 85%
CC1CCC(C)N1c1nc(N)nc(Nc2c(F)c(F)c(F)c(F)c2F)n1 (stereo not drawn) [Example 17],very good (a very good herbicidal activity is given at values of at least 85),–,very good (a very good herbicidal activity is given at values of at least 85),very good (a very good herbicidal activity is given at values of at least 85),–,–
CC1CCCN1c1nc(N)nc(Nc2c(F)c(F)c(F)c(F)c2F)n1 (stereo not drawn) [Example 20],very good (a very good herbicidal activity is given at values of at least 85),–,very good (a very good herbicidal activity is given at values of at least 85),very good (a very good herbicidal activity is given at values of at least 85),–,–
CC1CCCN1c1nc(N)nc(Nc2c(F)c(F)cc(F)c2F)n1 (stereo not drawn) [Example 21],–,very good (a very good herbicidal activity is given at values of at least 85),very good (a very good herbicidal activity is given at values of at least 85),very good (a very good herbicidal activity is given at values of at least 85),–,–
CCN(C)c1nc(N)nc(Nc2c(F)c(F)cc(F)c2F)n1 [Example 22],very good (a very good herbicidal activity is given at values of at least 85),very good (a very good herbicidal activity is given at values of at least 85),–,very good (a very good herbicidal activity is given at values of at least 85),–,–
Nc1nc(Nc2c(F)c(F)c(F)c(F)c2F)nc(N2CCOCC2)n1 [Example 23],very good (a very good herbicidal activity is given at values of at least 85),–,–,very good (a very good herbicidal activity is given at values of at least 85),–,herbicidal activity against ABUTH (Abutilon theophrasti [7]): very good (a very good herbicidal activity is given at values of at least 85)
COC[C@H]1CCCN1c1nc(N)nc(Nc2c(F)c(F)c(F)c(F)c2F)n1 [Example 25],good to very good,good to very good,good to very good,good to very good,very good (a very good herbicidal activity is given at values of at least 85),herbicidal activity against SETFA (Setaria faberi [3]; 0.500 kg/ha): very good (a very good herbicidal activity is given at values of at least 85); herbicidal activity against AMARE (Amaranthus retroflexus [4]): very good (a very good herbicidal activity is given at values of at least 85)
COC[C@H]1CCCN1c1nc(N)nc(Nc2c(F)c(F)cc(F)c2F)n1 [Example 26],very good (a very good herbicidal activity is given at values of at least 85),very good (a very good herbicidal activity is given at values of at least 85),very good (a very good herbicidal activity is given at values of at least 85),very good (a very good herbicidal activity is given at values of at least 85),very good (a very good herbicidal activity is given at values of at least 85),herbicidal activity against SETFA (Setaria faberi [3]; 0.500 kg/ha): very good (a very good herbicidal activity is given at values of at least 85); herbicidal activity against AMARE (Amaranthus retroflexus [4]): very good (a very good herbicidal activity is given at values of at least 85)
CON(C)c1nc(N)nc(Nc2c(F)c(F)c(F)c(F)c2F)n1 [Example 27],very good (a very good herbicidal activity is given at values of at least 85),very good (a very good herbicidal activity is given at values of at least 85),very good (a very good herbicidal activity is given at values of at least 85),very good (a very good herbicidal activity is given at values of at least 85),–,herbicidal activity against ABUTH (Abutilon theophrasti [7]): very good (a very good herbicidal activity is given at values of at least 85); herbicidal activity against ABUTH (Abutilon theophrasti [2]; 0.500 kg/ha): very good (a very good herbicidal activity is given at values of at least 85); herbicidal activity against SETFA (Setaria faberi [3]; 0.500 kg/ha): very good (a very good herbicidal activity is given at values of at least 85); pest or weed control at 500 g/ha (Amaranthus retroflexus [4]): ≥ 85%
COC[C@@H]1CCCN1c1nc(N)nc(Nc2c(F)c(F)c(F)c(F)c2F)n1 [Example 29],very good (a very good herbicidal activity is given at values of at least 85),–,–,very good (a very good herbicidal activity is given at values of at least 85),very good (a very good herbicidal activity is given at values of at least 85),herbicidal activity against AMARE (Amaranthus retroflexus [4]): very good (a very good herbicidal activity is given at values of at least 85)
COC[C@@H]1CCCN1c1nc(N)nc(Nc2c(F)c(F)cc(F)c2F)n1 [Example 30],very good (a very good herbicidal activity is given at values of at least 85),–,–,very good (a very good herbicidal activity is given at values of at least 85),very good (a very good herbicidal activity is given at values of at least 85),herbicidal activity against AMARE (Amaranthus retroflexus [4]): very good (a very good herbicidal activity is given at values of at least 85)
COCC1CCCN1c1nc(N)nc(Nc2c(F)c(F)c(F)c(F)c2F)n1 (stereo not drawn) [Example 31],good to very good,–,–,good to very good,very good (a very good herbicidal activity is given at values of at least 85),–
COCC1CCCN1c1nc(N)nc(Nc2c(F)c(F)cc(F)c2F)n1 (stereo not drawn) [Example 32],good to very good,good to very good,good to very good,good to very good,very good (a very good herbicidal activity is given at values of at least 85),herbicidal activity against SETFA (Setaria faberi [3]; 0.500 kg/ha): very good (a very good herbicidal activity is given at values of at least 85); pest or weed control at 500 g/ha (Amaranthus retroflexus [4]): ≥ 85%
CCN(CC)c1nc(N)nc(Nc2c(F)c(F)cc(F)c2F)n1 [Example 36],good to very good,–,–,good to very good,very good (a very good herbicidal activity is given at values of at least 85),pest or weed control at 500 g/ha (Amaranthus retroflexus [4]): ≥ 85%
